For one compound, Inhibition of currents and inhibition results are on record in publication PMC12549899 (Nature Communications, 2025).

The target of this assay is T1, DrOTOP1 L385W (Danio rerio, UniProt Q7ZWK8, L385W).
T1 construct: A previously generated codon-optimized full-length DrOTOP1[8]; (UniProt: Q7ZWK8) construct; expressed in transfected cells; host or cells: HEK-293 (CRL-1573, ATCC)
T1 sequence (Q7ZWK8 1-586 L385W): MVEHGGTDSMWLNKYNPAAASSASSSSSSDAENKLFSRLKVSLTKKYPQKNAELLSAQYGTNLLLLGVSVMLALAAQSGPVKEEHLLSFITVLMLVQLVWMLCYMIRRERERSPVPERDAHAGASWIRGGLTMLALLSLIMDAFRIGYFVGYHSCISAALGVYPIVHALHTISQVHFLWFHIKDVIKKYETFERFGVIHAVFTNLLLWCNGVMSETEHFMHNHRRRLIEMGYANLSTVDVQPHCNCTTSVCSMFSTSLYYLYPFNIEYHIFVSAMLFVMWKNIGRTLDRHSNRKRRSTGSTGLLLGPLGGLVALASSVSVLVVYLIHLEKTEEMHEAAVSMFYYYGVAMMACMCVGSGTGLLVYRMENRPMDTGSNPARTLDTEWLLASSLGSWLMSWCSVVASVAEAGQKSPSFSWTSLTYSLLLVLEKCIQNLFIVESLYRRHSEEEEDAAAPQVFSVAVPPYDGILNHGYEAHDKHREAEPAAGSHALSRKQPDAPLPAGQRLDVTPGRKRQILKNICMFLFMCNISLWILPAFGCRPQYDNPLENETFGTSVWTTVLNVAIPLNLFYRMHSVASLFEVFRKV
Nature of the assay: Whole-cell patch-clamp, inhibition of acid-evoked currents, DrOTOP1 L385W. It is filed as cell-based, zebrafish (Danio rerio). Conditions: single cells or mean; for Inhibition of currents: 10 µM. The text has this:
To functionally test the significance of the two binding sites identified by cryo-EM, we generated point mutations of DrOTOP1 using the binding poses and conformational changes observed in DrOTOP1_C2.2 to guide our mutations. As per the binding pose that best fits our cryo-EM density, C2.2 forms the following interactions in the outer site: hydrophobic packing against many non-polar residues W126, G130, M133, L134, F271, F570, and M573, and π-stacking with W532 (Fig. 5A). In addition, C2.2 could potentially form H-bonds with E267, if the sidechain is protonated or a water bridge is present, and with H574 if it moves closer (Fig. 5A). Likewise, C2.36 presents a heterocyclic nitrogen that can potentially form a H-bond with E267, similarly, provided a protonation or water bridge is present (Fig. 5B). In addition, C2.36 forms a T-shaped π-stacking interaction with H574, whose sidechain has rotated 90 degrees (compared to DrOTOP1_apo), presumably to accommodate the interaction (Fig. 5B). Considering other inhibitors discovered from the second round of screening, many contain functional groups like the carbonyl groups of Group 1 molecules and the heterocyclic nitrogen atoms of Group 2 molecules (Supplementary Fig. 3E), that can potentially form similar H-bonds with E267 as C2.2 and C2.36, assuming the binding modes are similar. In the central site, C2.2 binds with the following interactions: hydrophobic packing with residues V201, F271, A274, V278, and A388, π-stacking with F277, and H-bonding with E384 (Fig. 5C).
We next tested mutations of the central site (L205W, A274W, F277A, E384A L385W, A388W). V201W and S389W, two additional central site mutations, were excluded from the study due to complete loss of channel activity. […]
Whole-cell patch-clamp recording was performed as previously described[6],[22],[25]. Recordings were made with an Axopatch 200B amplifier, digitized with a Digidata 1322a 16-bit data acquisition system, acquired with pClamp 8.2 and analyzed with Clampfit 10 (Molecular Devices). […]

Values joined by “and” are separate entries in the source; they are usually repeats but may differ in a detail not shown here. Identical values can stand only once.

In turn, `C=C(C)COc1ccccc1NC(=O)c1nc[nH]c1C` [C2.2] gave an inhibition at 10 µM of 71%. Besides, the Inhibition of currents (mean) was 74.03%. Also, under “single cells”, the Inhibition of currents was 74.8228% and 76.1135% and 70.5882% and 77.6399%.
